Measurements published in patent publication US7691420B2, “Compositions for the treatment and prevention of diabetes mellitus” (priority 2003, dated 2010).
Entries after “also recorded” stand apart in the source; their conditions may differ. Marks after values point to notes of the source that are not given here.

Columns and labels:
[1] = system: C3H10T1/2; assay: Adipocyte differentiation of C3H10T1/2 cells, oil red O staining; assay type: cell-based; conditions: for Optical Density: extracted oil red O stain after 11-day treatment, insulin 100 nM
Excerpt: After the 11-day treatment, the cells were stained with oil red O. This was followed by extraction of the stain for concentration determination.

[2] = system: C57BLKS/J db/db mice; assay: Oral glucose tolerance test and fasted state glucose in db/db mice after 4 weeks; assay type: in vivo; conditions: for Fasted state glucose: blood, overnight fasting, before glucose load
Experimental: (§1) This model of late type 2 diabetes with severe hyperglycemia and obesity is widely used to determine the efficacy of anti-diabetic and anti-obesity compounds.
(§2) Male db/db mice were obtained from Jackson Laboratory (Bar Harbor, Me., USA). Adult mice aged 8 weeks were used in the experiment. Mice were housed individually in plastic cages with bedding and allowed free access to standard rodent food and tap water. The animal rooms were controlled for temperature (24° C.), humidity (55%), and light (12-h light-dark cycle). The animals were randomized into four groups. […] Body weight and food intake were determined over the course of the study. Total adipose tissue weight was determined by NMR. After four weeks of treatment an oral glucose tolerance test was carried out after an overnight fasting period. The blood glucose levels were measured before (fasted state glucose levels) application of an oral glucose load (1 g/kg body weight) and after 15, 30, 45, 60, 90, 120, 150 and 180 minutes. Area under the curve (AUC) was calculated from the resulting blood glucose curves and served as an indicator of glucose tolerance. At the end of the study, fed state levels of glucose, triglycerides and free fatty acids were determined in plasma. All data are expressed as means for animals in each group.

[3] = system: C57BLKS/J db/db mice; assay: Fed state plasma glucose, triglycerides and free fatty acids in db/db mice at end of study; assay type: in vivo; conditions: 4 weeks
Experimental: as §1, §2

[4] = system: C57BLKS/J db/db mice; assay: Body weight, adipose tissue weight and food intake in the 4-week db/db mouse study; assay type: in vivo; conditions: for Total adipose tissue weight / Body weight: 4 weeks feed-ad-mix, 1% EGCG and/or 0.038% rosiglitazone in diet, group means; for Total adipose tissue weight: by NMR; for Body weight: * vs control, # vs rosiglitazone (P<0.05)
Experimental: as §1, §2

[5] = 1% EGCG and/or 0.038% rosiglitazone in diet
[6] = fed state plasma, 1% EGCG and/or 0.038% rosiglitazone in diet

Compound	Optical Density ([1]; Table 1, rosiglitazone 1 × 10^−5 M, pioglitazone 2.5 × 10^−5 M, EGCG 5 × 10^−5 M)	Optical Density ([1]; Table 2, ligustilide 50 × 10^−5 M, no EGCG)	Fasted state glucose [2, 5]	AUC ([2]; 1% EGCG and/or 0.038% rosiglitazone in diet, oral glucose load 1 g/kg, blood glucose curve 0-180 minutes)	Glucose tolerance (result in words) ([2]; AUC of oral glucose tolerance test)	Fasted state glucose levels (result in words) ([2]; compared to control mice)	Fed state plasma levels of glucose, triglycerides, and free fatty acids (result in words) [3]	Glucose [3, 6]	Triglycerides [3, 6]	Adipocyte differentiation (result in words) ([1]; C3H10T1/2 cells, 11-day treatment, oil Red O staining)	Total adipose tissue weight [4]	Body weight [4]	Body weight and adipose tissue weight (result in words) ([4]; 4 weeks, compared to control mice)	Free fatty acids [3, 6]
Insulin: insulin, 100 nM, used alone as comparison in the adipocyte differentiation test [reference compound]	0.21 ± 0.02	0.14 ± 0.01	–	–	–	–	–	–	–	–	–	–	–	–
(−)-epigallocatechin gallate [EGCG]	–	–	132.1* mg/dl	38353.5*	significantly improved	significantly reduced	significantly reduced	33.5*# mmol/l	1.47* mmol/l	blocked TZD-induced adipocyte differentiation; also recorded: blocked ligustilide-induced adipocyte differentiation	20.9*# g	38.8*# g	moderately decreased	–
CN(CCOc1ccc(CC2SC(=O)NC2=O)cc1)c1ccccn1 (stereo not shown) [Rosiglitazone, rosiglitazone, reference compound]	–	–	98.0* mg/dl	–	–	–	–	22.1* mmol/l	1.01* mmol/l	–	29.0* g	50.0* g	–	25.2* mmol/l
